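These data come from cells grown in 96-well plates and exposed to compound for 48 hours at five concentrations. The concentration for 50% growth inhibition is given as GI50.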 Activity calls are given as the source filed them. Rule as the data show it: active = GI50 up to about 1.1 µM and inactive = higher.
How the values were obtained:
Experiment in all cases: DTP human tumour cell line panel, 48 h
SW-620 = tested on: SW-620
ACHN = tested on: ACHN
COLO 205 = tested on: COLO 205
RPMI-8226 = tested on: RPMI-8226
CCRF-CEM = tested on: CCRF-CEM
NCI-H460 = tested on: NCI-H460
HT-29 = tested on: HT-29
MOLT-4 = tested on: MOLT-4
OVCAR-3 = tested on: OVCAR-3
OVCAR-5 = tested on: OVCAR-5
SK-MEL-28 = tested on: SK-MEL-28
HL-60 = tested on: HL-60
KM12 = tested on: KM12
RXF 393 = tested on: RXF 393
NCI-H522 = tested on: NCI-H522
OVCAR-4 = tested on: OVCAR-4
HCT-15 = tested on: HCT-15

SMILES	GI50 (SW-620)	GI50 (ACHN)	GI50 (COLO 205)	GI50 (RPMI-8226)	GI50 (CCRF-CEM)	GI50 (NCI-H460)	GI50 (HT-29)	GI50 (MOLT-4)	GI50 (OVCAR-3)	GI50 (OVCAR-5)	GI50 (SK-MEL-28)	GI50 (HL-60)	GI50 (KM12)	GI50 (RXF 393)	GI50 (NCI-H522)	GI50 (OVCAR-4)	GI50 (HCT-15)
C/C(CC(=O)Nc1ccc([N+](=O)[O-])cc1)=N/N=C(N)N	> 100 µM (inactive)	> 100 µM (inactive)	> 100 µM (inactive)	> 10 µM (inactive)	> 100 µM (inactive)	> 100 µM (inactive)	> 100 µM (inactive)	> 100 µM (inactive)	> 100 µM (inactive)	> 100 µM (inactive)	> 100 µM (inactive)	> 100 µM (inactive)	> 100 µM (inactive)	> 100 µM (inactive)	> 100 µM (inactive)	–	–
O=C1NC2(O)c3ccccc3C(=O)C2(O)N1c1ccccc1 (configuration not stated)	> 100 µM (inactive)	–	> 100 µM (inactive)	> 100 µM (inactive)	> 100 µM (inactive)	> 100 µM (inactive)	> 100 µM (inactive)	> 100 µM (inactive)	> 100 µM (inactive)	> 100 µM (inactive)	> 100 µM (inactive)	> 100 µM (inactive)	> 100 µM (inactive)	–	> 100 µM (inactive)	> 100 µM (inactive)	> 100 µM
Cc1nc(-n2nc(-c3ccccc3)cc2-c2ccccc2)sc1C(=O)/C=C/c1ccc(/C=C/C(=O)c2sc(-n3nc(-c4ccccc4)cc3-c3ccccc3)nc2C)cc1	34.8 µM (inactive)	19.9 µM (inactive)	20.2 µM (inactive)	–	30.6 µM (inactive)	29 µM (inactive)	21.6 µM (inactive)	25.1 µM (inactive)	20.8 µM (inactive)	25.5 µM (inactive)	19.5 µM (inactive)	32.9 µM (inactive)	18.8 µM (inactive)	22.8 µM (inactive)	17.8 µM (inactive)	35.2 µM (inactive)	34.3 µM
CCOC(=O)CCCO	> 100 µM (inactive)	> 100 µM (inactive)	–	> 100 µM (inactive)	> 100 µM (inactive)	> 100 µM (inactive)	> 100 µM (inactive)	> 100 µM (inactive)	> 100 µM (inactive)	> 100 µM (inactive)	> 100 µM (inactive)	> 100 µM (inactive)	> 100 µM (inactive)	> 100 µM (inactive)	> 100 µM (inactive)	–	> 100 µM
O=C1CC(c2c[nH]c3ccccc23)C(=O)N1c1ccccc1 (configuration not stated)	> 100 µM (inactive)	> 100 µM (inactive)	–	> 100 µM (inactive)	> 100 µM (inactive)	> 100 µM (inactive)	> 100 µM (inactive)	> 100 µM (inactive)	> 100 µM (inactive)	> 100 µM (inactive)	> 100 µM (inactive)	> 100 µM (inactive)	> 100 µM (inactive)	> 100 µM (inactive)	–	> 100 µM (inactive)	> 100 µM
Cn1cnc([N+](=O)[O-])c1Sc1nnc(-c2ccc(Cl)cc2)n1C	11.3 µM (inactive)	15.1 µM (inactive)	11.9 µM (inactive)	16.4 µM (inactive)	3.69 µM (inactive)	20.7 µM (inactive)	15 µM (inactive)	6.78 µM (inactive)	13.9 µM (inactive)	20.5 µM (inactive)	14.2 µM (inactive)	–	20.1 µM (inactive)	3.15 µM (inactive)	3.17 µM (inactive)	13.7 µM (inactive)	–
NC12CC3CC(C1)CC(C(=O)O)(C3)C2	> 100 µM (inactive)	> 100 µM (inactive)	–	> 100 µM (inactive)	> 100 µM (inactive)	> 100 µM (inactive)	> 100 µM (inactive)	> 100 µM (inactive)	> 100 µM (inactive)	> 100 µM (inactive)	> 100 µM (inactive)	> 100 µM (inactive)	> 100 µM (inactive)	–	> 100 µM (inactive)	> 100 µM (inactive)	> 100 µM
O=C1CCC2(CCC(=O)NC2=O)C(=O)N1	> 100 µM (inactive)	> 100 µM (inactive)	> 100 µM (inactive)	> 100 µM (inactive)	> 100 µM (inactive)	> 100 µM (inactive)	> 100 µM (inactive)	> 100 µM (inactive)	> 100 µM (inactive)	–	> 100 µM (inactive)	> 100 µM (inactive)	> 100 µM (inactive)	> 100 µM (inactive)	> 100 µM (inactive)	–	> 100 µM
N#CCCN(c1ccc(-c2nnc(NC(=O)CNNC(=O)CC(=O)Nc3ccccc3)s2)cc1)S(=O)(=O)c1ccccc1	> 100 µM (inactive)	> 100 µM (inactive)	> 100 µM (inactive)	> 100 µM (inactive)	90.8 µM (inactive)	> 100 µM (inactive)	> 100 µM (inactive)	45.3 µM (inactive)	52.6 µM (inactive)	> 100 µM (inactive)	> 100 µM (inactive)	39.4 µM (inactive)	> 100 µM (inactive)	–	42.1 µM (inactive)	53.2 µM (inactive)	> 100 µM

Reference: ChEMBL document CHEMBL1201862, “PubChem BioAssay data set” (2004)
